Measured values published in BindingDB's records for doi:10.1021/acs.jnatprod.5b00104 (Peking Union Medical College, 2015).
pEC50: −log10 of the molar value.

target: T1, X-box-binding protein 1 (Rattus norvegicus, UniProt Q9R1S4); assay: ChEBML_1526682
T1 sequence (Q9R1S4 whole entry): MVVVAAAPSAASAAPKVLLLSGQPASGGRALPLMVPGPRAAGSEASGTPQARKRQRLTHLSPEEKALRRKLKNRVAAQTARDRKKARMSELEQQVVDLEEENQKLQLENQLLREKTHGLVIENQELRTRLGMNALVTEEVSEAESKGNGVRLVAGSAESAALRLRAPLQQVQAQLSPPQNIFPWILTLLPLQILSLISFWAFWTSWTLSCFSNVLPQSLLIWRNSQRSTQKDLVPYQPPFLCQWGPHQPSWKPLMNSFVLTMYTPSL
Excerpt: Transactivation of XBP1 in rat IEC-6 cells after 48 hrs by dual luciferase reporter gene assay

| pEC50 | SMILES |
| --- | --- |
| 6.38 | C/C1=C\CC[C@@]2(C)O[C@@H]2C[C@]2(C(C)C)CC[C@@](C)(O2)[C@H](O)CC1=O |
| 6.47 | C/C1=C/C[C@@H](O)[C@@]2(C)CC[C@@](C(C)C)(C[C@@H](O)[C@]3(C)CC[C@H]1O3)O2 |
| 6.06 | C/C1=C\[C@@H](O)C[C@@]2(C)O[C@@H]2C[C@]2(C(C)C)CC[C@@](C)(O2)[C@H](O)CC1=O |
| 5.94 | CC(C)[C@@]12CC[C@@](C)(O1)[C@H](O)CC/C(C=O)=C/CC[C@@]1(C)O[C@@H]1C2 |
